Data published in US20100041642A1, “UREA INHIBITORS OF MAP KINASES” (LOCUS PHARMACEUTICALS, INC., priority 2008, published 2010).

Target: p38 (Homo sapiens, UniProt Q16539)
Test: Protein Kinase Assay (33P incorporation from γ-[33P]ATP into GST-ATF-2)
Format: biochemical
Settings: 2 nM p38, preincubated 20 min at 30° C.; 10 uM cold ATP, 2 uM GST-ATF2, 70 min; read-out: ACT. (Activity), IC50 category in Protein Kinase Assay
Procedure, shortened: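 Compounds preincubated 20 min at 30 °C with 2 nM p38; reaction started with 2 uM GST-ATF-2 (aa 19-96) and 10 uM ATP plus γ-[33P]ATP, pH 7.5, 70 min at 30 °C, 2% DMSO. Phosphoric acid stop; 33P-labelled substrate captured on phosphocellulose and counted by scintillation.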

Sequence of p38 (Q16539 whole entry): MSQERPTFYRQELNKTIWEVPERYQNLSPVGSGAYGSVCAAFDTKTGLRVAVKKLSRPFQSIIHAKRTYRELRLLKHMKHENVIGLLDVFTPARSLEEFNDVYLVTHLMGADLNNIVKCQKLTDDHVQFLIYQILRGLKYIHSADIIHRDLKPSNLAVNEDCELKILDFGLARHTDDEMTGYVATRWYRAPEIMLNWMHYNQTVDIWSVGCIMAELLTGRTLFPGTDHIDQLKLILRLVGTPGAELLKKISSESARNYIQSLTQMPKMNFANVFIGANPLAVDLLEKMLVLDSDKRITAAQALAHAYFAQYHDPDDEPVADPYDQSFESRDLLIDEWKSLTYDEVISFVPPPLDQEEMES

SMILES | IC50 [µM]
Cc1ccc(NC(=O)Nc2cn(C(C)(C)C)nc2C(=O)N2CCNC(=O)C2(C)C)cc1-c1ccc(CN2CCOCC2)nc1 [1-(1-tert-butyl-3-(2,2-dimethyl-3-oxopiperazine-1-carbonyl)-1H-pyrazol-4-yl)-3-(4-methyl-3-(6-(morpholinomethyl)pyridin-3-yl)phenyl)urea] | < 0.1
CCNC(=O)c1ccc(-c2cc(NC(=O)Nc3cc(C(C)(C)C)sc3C(=O)N3CCNC(=O)C3(C)C)ccc2C)cn1 | < 0.1
CC(C)(C)c1cc(C(=O)N2CCNC(=O)C2(C)C)c(NC(=O)Nc2cccc(-c3ccc(OCCCN4CCOCC4)nc3)c2)s1 [1-(5-tert-butyl-3-(2,2-dimethyl-3-oxopiperazine-1-carbonyl)thiophen-2-yl)-3-(3-(6-(3-morpholinopropoxy)pyridin-3-yl)phenyl)urea] | < 0.1
Cc1ccc(NC(=O)Nc2sc(C(C)(C)C)cc2C(=O)N2CCNC(=O)CC2)cc1-c1cccnc1 [1-(5-tert-butyl-3-(5-oxo-1,4-diazepane-1-carbonyl)thiophen-2-yl)-3-(4-methyl-3-(pyridin-3-yl)phenyl)urea] | < 0.1
Cc1ccc(NC(=O)Nc2sc(C(C)(C)C)cc2C(=O)N2CCNC(=O)C2(C)C)cc1N1C(=O)CN(C)C1=O [1-(5-tert-butyl-3-(2,2-dimethyl-3-oxopiperazine-1-carbonyl)thiophen-2-yl)-3-(4-methyl-3-(3-methyl-2,5-dioxoimidazolidin-1-yl)phenyl)urea] | < 0.1
Cc1ccc(NC(=O)Nc2sc(C(C)(C)C)cc2C(=O)N2CCNC(=O)C2(C)C)cc1-c1ccc(N2CCN(C)CC2)cn1 [1-(5-tert-butyl-3-(2,2-dimethyl-3-oxopiperazine-1-carbonyl)thiophen-2-yl)-3-(4-methyl-3-(5-(4-methylpiperazin-1-yl)pyridin-2-yl)phenyl)urea] | < 0.1
Cc1ccc(NC(=O)Nc2sc3c(c2C(=O)N2CCN(C)C(=O)C2(C)C)CCOC3)cc1-c1ccc(CN2CCOCC2)nc1 [1-(4-methyl-3-(6-(morpholinomethyl)pyridin-3-yl)phenyl)-3-(3-(2,2,4-trimethyl-3-oxopiperazine-1-carbonyl)-5,7-dihydro-4H-thieno[2,3-c]pyran-2-yl)urea] | < 1
Cc1ccc(-c2cc(NC(=O)Nc3sc(C(C)(C)C)cc3C(=O)N3CCN(C)C(=O)C3(C)C)ccc2C)cn1 [1-(5-tert-butyl-3-(2,2,4-trimethyl-3-oxopiperazine-1-carbonyl)thiophen-2-yl)-3-(4-methyl-3-(6-methylpyridin-3-yl)phenyl)urea] | < 0.1
Cc1ccc(NC(=O)Nc2sc(C(C)(C)C)cc2C(=O)N2CCNC(=O)C2(C)C)cc1-c1ccc(N2CCC(N)C2)nc1 (centres unmarked) [1-(3-(6-(3-aminopyrrolidin-1-yl)pyridin-3-yl)-4-methylphenyl)-3-(5-tert-butyl-3-(2,2-dimethyl-3-oxopiperazine-1-carbonyl)thiophen-2-yl)urea] | < 0.1
Cc1ccc(NC(=O)Nc2sc(C(C)(C)C)cc2C(=O)N2CCN(C)C(=O)C2(C)C)cc1-c1ccc(OC(C)C)nc1 [1-(5-tert-butyl-3-(2,2,4-trimethyl-3-oxopiperazine-1-carbonyl)thiophen-2-yl)-3-(3-(6-isopropoxypyridin-3-yl)-4-methylphenyl)urea] | < 0.1
COc1ccc(-c2cc(NC(=O)Nc3cc(C(C)(C)C)sc3C(=O)N3CCNC(=O)C3(C)C)ccc2C)cn1 [1-(5-tert-butyl-2-(2,2-dimethyl-3-oxopiperazine-1-carbonyl)thiophen-3-yl)-3-(3-(6-methoxypyridin-3-yl)-4-methylphenyl)urea] | < 0.1
Cc1ccc(NC(=O)Nc2sc(C(C)(C)C)cc2C(=O)N2CCN(C)C(=O)C2(C)C)cc1-c1ccc(-n2cccn2)nc1 [1-(3-(6-(1H-pyrazol-1-yl)pyridin-3-yl)-4-methylphenyl)-3-(5-tert-butyl-3-(2,2,4-trimethyl-3-oxopiperazine-1-carbonyl)thiophen-2-yl)urea] | < 0.1
CC(=O)N1CCN(C(=O)c2cc(C(C)(C)C)sc2NC(=O)Nc2ccc(C)c(-c3cccnc3)c2)CC1 [1-(5-tert-butyl-3-(4-ethanoylpiperazine-1-carbonyl)thiophen-2-yl)-3-(4-methyl-3-(pyridin-3-yl)phenyl)urea] | < 0.1
COc1ccc(-c2cc(NC(=O)Nc3cc(C(C)(C)C)sc3C(=O)N3CCN(C)C(=O)C3(C)C)cc(F)c2C)cn1 [1-(5-tert-butyl-2-(2,2,4-trimethyl-3-oxopiperazine-1-carbonyl)thiophen-3-yl)-3-(3-fluoro-5-(6-methoxypyridin-3-yl)-4-methylphenyl)urea] | < 0.1
Cc1ccc(NC(=O)Nc2cn(C(C)(C)C)nc2C(=O)N2CCNC(=O)C2(C)C)cc1-c1ccc(N2CCOCC2)nc1 [1-(1-tert-butyl-3-(2,2-dimethyl-3-oxopiperazine-1-carbonyl)-1H-pyrazol-4-yl)-3-(4-methyl-3-(6-morpholinopyridin-3-yl)phenyl)urea] | < 0.1
CNC(=O)c1ccc(-c2cc(NC(=O)Nc3sc(C(C)(C)C)cc3C(=O)N3CCNC(=O)C3(C)C)ccc2C)cn1 [5-(5-(3-(5-tert-butyl-3-(2,2-dimethyl-3-oxopiperazine-1-carbonyl)thiophen-2-yl)ureido)-2-methylphenyl)-N-methylpyridine-2-carboxamide] | < 0.1
CC(C)(C)c1cc(C(=O)N2CCNC(=O)C2(C)C)c(NC(=O)Nc2cccc(-c3cccnc3)c2)s1 [1-(5-tert-butyl-3-(2,2-dimethyl-3-oxopiperazine-1-carbonyl)thiophen-2-yl)-3-(3-(pyridin-3-yl)phenyl)urea] | < 0.1
Cc1ccc(NC(=O)Nc2sc(C(C)(C)C)cc2C(=O)N2CCNC(=O)C2(C)C)cc1C#N [1-(5-tert-butyl-3-(2,2-dimethyl-3-oxopiperazine-1-carbonyl)thiophen-2-yl)-3-(3-cyano-4-methylphenyl)urea] | < 0.1
CC(C)(C)c1cc(C(=O)N2CCNC(=O)C2(C)C)c(NC(=O)Nc2cccc(-c3cnco3)c2)s1 [1-(5-tert-butyl-3-(2,2-dimethyl-3-oxopiperazine-1-carbonyl)thiophen-2-yl)-3-(3-(oxazol-5-yl)phenyl)urea] | < 0.1
Cc1ccc(NC(=O)Nc2sc(C(C)(C)C)cc2C(=O)N2CCNC(=O)C2(C)C)cc1C#CCN1CCN(C)CC1 [1-(5-tert-butyl-3-(2,2-dimethyl-3-oxopiperazine-1-carbonyl)thiophen-2-yl)-3-(4-methyl-3-(3-(4-methylpiperazin-1-yl)prop-1-ynyl)phenyl)urea] | < 0.1
Cc1ccc(NC(=O)Nc2sc(C(C)(C)C)cc2C(=O)N2CCN(C)C(=O)C2(C)C)cc1-c1ccc(C(C)N2CCOCC2)nc1 (centres unmarked) [1-(5-tert-butyl-3-(2,2,4-trimethyl-3-oxopiperazine-1-carbonyl)thiophen-2-yl)-3-(4-methyl-3-(6-(1-morpholinoethyl)pyridin-3-yl)phenyl)urea] | < 0.1
CC(C)(C)c1cc(C(=O)N2CCNC(=O)C2(C)C)c(NC(=O)Nc2cccc(-c3ccc(OCCCc4ccccn4)nc3)c2)s1 [1-(5-tert-butyl-3-(2,2-dimethyl-3-oxopiperazine-1-carbonyl)thiophen-2-yl)-3-(3-(6-(3-(pyridin-2-yl)propoxy)pyridin-3-yl)phenyl)urea] | < 0.1
Cc1cc(NC(=O)Nc2cc(C(C)(C)C)sc2C(=O)N2CCNC(=O)C2(C)C)cc(-c2ccc(N3CCOCC3)cn2)c1 [1-(5-tert-butyl-2-(2,2-dimethyl-3-oxopiperazine-1-carbonyl)thiophen-3-yl)-3-(3-methyl-5-(5-morpholinopyridin-2-yl)phenyl)urea] | < 0.1
